pIC50: −log10 of the molar value.
Key:
[1] = tested on: Wnt/β-catenin signaling pathway; experiment: TCF-luciferase reporter gene assay (Wnt-3a stimulated HEK 293 cells); format: cell-based; details: Homo sapiens, HEK293, Wnt-3a stimulation, read-out: Inhibitory activity against the Wnt/β-catenin signaling pathway
Experimental: Evaluation of inhibitory activity of the compounds of the present invention against the Wnt/β-catenin signaling pathway was performed by evaluating the inhibitory activity of the compounds of the present invention against the Wnt/β-catenin signaling pathway activated by the Wnt-3a ligand using a commercially available TCF-luciferase reporter gene assay system.
In a T75 flask, HEK 293 cells (ATCC No. CRL-1573) were added to a DMEM medium (manufactured by NACALAI TESQUE, INC., No. 08459-35) supplemented with 10% FBS (AusGeneX PTY LTD.) and 1% Penicillin/Streptomycin (NACALAI TESQUE, INC.). The cells in the flask were cultured in a 5% CO2 incubator.
The cultured HEK 293 cells were diluted with a DMEM medium supplemented with only 10% FBS so as to have a cell concentration of 2×10^5 cells/mL, and 100 μL each of the diluted cells were seeded into respective wells of 96-well plates (PerkinElmer Inc., ViewPlate No. 6005181), followed by culturing overnight in the 5% CO2 incubator. To an OptiMEM medium (Invitrogen® No. 11058), pGL4.49 [luc2p/TCF-LEF-RE/Hygro] plasmid DNA (Promega Corporation) and FuGENE® HD (Promega No. E2691) were added so as to have concentrations of 1 μg/mL and 3 μg/mL, respectively, to prepare a transfection solution as described in the protocol attached to the reagent. To the respective wells containing the HEK 293 cells cultured overnight, 100 μL each of the transfection solution was added gently, followed by culturing overnight in the 5% CO2 incubator to perform transfection.
To a DMEM medium, 0.5% charcoal/dextran treated Fetal Bovine Serum (Thermo Scientific No. SH30068.02) and LiCl (Sigma-Aldrich No. L9650) were added to prepare a LiCl-containing medium (final concentration of LiCl: 10 mM). The medium in the respective wells of the HEK 293 cells cultured overnight and transfected with a reporter gene was removed by decantation. The LiCl-containing medium (90 μL) was added gently to each well, followed by culturing overnight in the 5% CO2 incubator.
A DMSO stock solution of the compound to be tested was diluted 100-fold with a LiCl-containing medium so as to prepare a solution of the compound to be tested, which is 10 times the test concentration. Further, Recombinant Mouse Wnt-3a (R&D Systems, Inc. #1324-WN) was dissolved in a 0.1% BSA-PBA solution so as to have a concentration of 40 μg/mL, and the resultant solution was diluted with a LiCl-containing medium so as to have a concentration of 100 ng/mL, to prepare a Wnt-3a solution. To each well of the HEK 293 cells cultured overnight in the LiCl-containing medium, 10 μL each of the solution of the compound to be tested was added, followed by culturing in the 5% CO2 incubator for 2 hours (the final concentration of the compound to be tested: 3-0.03 μM). Thereafter, 10 μL each of the Wnt-3a solution was added to the respective wells, followed by further culturing for 5 hours.
Using ONE-Glo™ Luciferase Assay System (Promega Corporation, No. E6110), the luciferase activity of the cells in the wells was measured by a microplate reader (Synergy H1, BioTek Instruments, Inc.) An IC50 value was calculated from the luminescence intensity of each compound concentration, supposing that the luminescence intensity of a group with no addition of the compound and with Wnt-3a stimulation was 100%, and that the luminescence intensity of a group with no addition of the compound and with no Wnt-3a stimulation was 0%.

[2] = tested on: AXIN2 gene expression; experiment: Expression level of Wnt/β-catenin target gene AXIN2 by real-time PCR in HCT116 cells; format: cell-based, human; details: 10 and 3 μM, 24 hours
Experimental: (§1) Effects of the compound of the present invention on Wnt/β-catenin signaling activity were studied using the real-time PCR method as well as using as an indicator changes in expression levels of target genes of the Wnt/β-catenin signaling pathway. To a RPMI 1640 medium (NACALAI TESQUE, INC.), 10% FBS (AusGeneX PTY LTD.) and 1% Penicillin/Streptomycin (NACALAI TESQUE, INC.) were added to prepare a cell culture medium (hereinafter referred to as medium 1). In a T75 flask, HCT116 cells (ATCC No. CCL-247) were added to the medium 1. The cells in the flask were cultured in the 5% CO2 incubator. The cultured HCT116 cells were diluted with the medium 1 so as to have a cell concentration of 1.1×10^5 cells/mL. Into the T75 flask, 13.5 mL of the diluted cells was seeded, followed by culturing overnight in the 5% CO2 incubator. […] Total RNA concentration was measured by a microspectrophotometer (Thermo Fisher Scientific Inc., Nano Drop ND-1000). […] The results were calculated as the expression ratio of the target gene to the endogenous control gene (β-Actin) by the comparative Ct method using a DMSO group as a reference.

[3] = tested on: c-MYC gene expression; experiment: Expression level of Wnt/β-catenin target gene c-MYC by real-time PCR in HCT116 cells; format: cell-based, human; details: 10 and 3 μM, 24 hours
Experimental: as §1

## O[C@H]1CC[C@@H](Oc2cccc3cnc(Nc4ccc5nc[nH]c5c4)nc23)CC1 [Example 1, cis-4-({2-[(1H-benzo[d]imidazol-6-yl)amino]quinazolyn-8-yl}oxy)cyclohexanol]
[1]
  pIC50: > 6.52
[2]
  AXIN2 gene expression: inhibited the expression of AXIN2 and c-MYC
[3]
  c-MYC gene expression: inhibited the expression of AXIN2 and c-MYC
